Experimental data reported in patent publication US6525001B1, “Substituted pyrimidine and pyridine herbicides” (Mid-American Commercialization Corporation, priority 1997, dated 2003).

Key:
Assay in all cases: Test B pre-/postemergence
Assay type in all cases: in vivo
Set-up in all cases: key: 0 is no effect; 10 is complete control
[1] = system: velvetleaf (Abutilon theophrasti)
In short: (§1)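 Response scores run from 0, meaning no effect, to 10, meaning complete control, assigned by eye relative to controls twelve to sixteen days after spraying. Treatment was both preemergence on planted seed and postemergence on plants at the 1- to 4-leaf stage.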

[2] = system: pigweed (Amaranthus retroflexus)
In short: as §1

[3] = system: giant foxtail (Setaria faberii)
In short: as §1

[4] = system: blackgrass (Alopecurus myosuroides); conditions: for Blackgrass plant response rating: Preemergence
In short: as §1

[5] = system: sugar beet (Beta vulgaris)
In short: as §1

[6] = system: cocklebur (Xanthium strumarium); conditions: for Cocklebur plant response rating: Preemergence
In short: as §1

[7] = system: bedstraw (Galium aparine); conditions: for Bedstraw plant response rating: Preemergence
In short: as §1

[8] = system: broadleaf signalgrass (Brachiaria decumbens); conditions: for B. signalgrass plant response rating: Preemergence
In short: as §1

rape (Brassica napus) = system: rape (Brassica napus)
In short: as §1

[9] = system: wheat (Triticum aestivum)
In short: as §1

[10] = system: momingglory (Ipomoea hederacea)
In short: as §1

soybean (Glycine max) = system: soybean (Glycine max)
In short: as §1

[11] = system: crabgrass (Digitaria sanguinalis); conditions: for Crabgrass plant response rating: Preemergence
In short: as §1

corn (Zea mays) = conditions: for Corn plant response rating: Preemergence
In short: as §1

[12] = Rate 250 g/ha, Postemergence (so in the source)
[13] = Rate 250 g/ha, Postemergence as printed in head r139 (second section for compounds 26-50)

Compound: Cc1cnc(-n2ccc(C(F)(F)F)n2)nc1Cc1cccc(OC(F)(F)F)c1 [Compound 42]
- Plant response rating, Velvetleaf ([1]; Rate 62 g/ha, Postemergence): 8
- Velvetleaf plant response rating ([1]; Rate 62 g/ha, Preemergence): 10
- Velvetleaf plant response rating ([1]; Rate 125 g/ha, Postemergence): 9
- Plant response rating, Velvetleaf ([1]; Rate 125 g/ha, Preemergence): 7
- Plant response rating, Velvetleaf ([1]; Rate 250 g/ha, Postemergence): 9
- Plant response rating, Velvetleaf [1, 12]: 10
- Plant response rating, Redroot pigweed ([2]; Rate 62 g/ha, Postemergence): 9
- Redroot pigweed plant response rating ([2]; Rate 62 g/ha, Preemergence): 9
- Redroot pigweed plant response rating ([2]; Rate 125 g/ha, Postemergence): 9
- Redroot pigweed plant response rating ([2]; Rate 125 g/ha, Preemergence): 10
- Plant response rating, Redroot pigweed ([2]; Rate 250 g/ha, Postemergence): 9
- Plant response rating, Redroot pigweed [2, 12]: 10
- Plant response rating, Giant foxtail ([3]; Rate 62 g/ha, Postemergence): 6
- Giant foxtail plant response rating ([3]; Rate 62 g/ha, Preemergence): 10
- Giant foxtail plant response rating ([3]; Rate 125 g/ha, Postemergence): 7
- Giant foxtail plant response rating ([3]; Rate 125 g/ha, Preemergence): 10
- Plant response rating, Giant foxtail ([3]; Rate 250 g/ha, Postemergence): 9
- Plant response rating, Giant foxtail [3, 12]: 10
- Plant response rating, Blackgrass ([4]; Rate 62 g/ha, Postemergence): 6
- Blackgrass plant response rating ([4]; Rate 62 g/ha): 6
- Plant response rating, Blackgrass ([4]; Rate 125 g/ha, Postemergence): 7
- Blackgrass plant response rating ([4]; Rate 125 g/ha): 10
- Plant response rating, Blackgrass ([4]; Rate 250 g/ha, Postemergence): 7
- Plant response rating, Blackgrass [4, 12]: 10
- Plant response rating, Sugarbeets ([5]; Rate 62 g/ha, Postemergence): 10
- Sugarbeets plant response rating ([5]; Rate 62 g/ha, Preemergence): 10
- Sugarbeets plant response rating ([5]; Rate 125 g/ha, Postemergence): 10
- Plant response rating, Sugarbeets ([5]; Rate 125 g/ha, Preemergence): 10
- Plant response rating, Sugarbeets ([5]; Rate 250 g/ha, Postemergence): 10
- Plant response rating, Sugarbeets [5, 12]: 10
- Plant response rating, Cocklebur ([6]; Rate 62 g/ha, Postemergence): 9
- Cocklebur plant response rating ([6]; Rate 62 g/ha): 1
- Plant response rating, Cocklebur ([6]; Rate 125 g/ha, Postemergence): 9
- Cocklebur plant response rating ([6]; Rate 125 g/ha): 3
- Plant response rating, Cocklebur ([6]; Rate 250 g/ha, Postemergence): 9
- Plant response rating, Cocklebur [6, 12]: 8
- Plant response rating, Bedstraw ([7]; Rate 62 g/ha, Postemergence): 9
- Bedstraw plant response rating ([7]; Rate 62 g/ha): 7
- Plant response rating, Bedstraw ([7]; Rate 125 g/ha, Postemergence): 9
- Bedstraw plant response rating ([7]; Rate 125 g/ha): 8
- Plant response rating, Bedstraw [7, 12]: 8
- Plant response rating, B. signalgrass ([8]; Rate 62 g/ha, Postemergence): 6
- B. signalgrass plant response rating ([8]; Rate 62 g/ha): 9
- Plant response rating, B. signalgrass ([8]; Rate 125 g/ha, Postemergence): 7
- B. signalgrass plant response rating ([8]; Rate 125 g/ha): 9
- Plant response rating, B. signalgrass ([8]; Rate 250 g/ha, Postemergence): 7
- Plant response rating, B. signalgrass [8, 13]: 10
- Plant response rating, Rape (rape (Brassica napus); Rate 62 g/ha, Postemergence): 10
- Rape plant response rating (rape (Brassica napus); Rate 62 g/ha, Preemergence): 7
- Rape plant response rating (rape (Brassica napus); Rate 125 g/ha, Postemergence): 10
- Rape plant response rating (rape (Brassica napus); Rate 125 g/ha, Preemergence): 10
- Plant response rating, Rape (rape (Brassica napus); Rate 250 g/ha, Postemergence): 10
- Plant response rating, Rape (rape (Brassica napus); [12]): 10
- Wheat plant response rating ([9]; Rate 62 g/ha, Postemergence): 2
- Wheat plant response rating ([9]; Rate 62 g/ha, Preemergence): 1
- Wheat plant response rating ([9]; Rate 125 g/ha, Postemergence): 3
- Plant response rating, Wheat ([9]; Rate 125 g/ha, Preemergence): 2
- Plant response rating, Wheat ([9]; Rate 250 g/ha, Postemergence): 4
- Plant response rating, Wheat [9, 12]: 4
- Plant response rating, Morningglory ([10]; Rate 62 g/ha, Postemergence): 8
- Morningglory plant response rating ([10]; Rate 62 g/ha, Preemergence): 9
- Morningglory plant response rating ([10]; Rate 125 g/ha, Postemergence): 9
- Morningglory plant response rating ([10]; Rate 125 g/ha, Preemergence): 10
- Plant response rating, Morningglory ([10]; Rate 250 g/ha, Postemergence): 9
- Plant response rating, Morningglory [10, 12]: 10
- Plant response rating, Soybean (soybean (Glycine max); Rate 62 g/ha, Postemergence): 9
- Soybean plant response rating (soybean (Glycine max); Rate 62 g/ha, Preemergence): 2
- Soybean plant response rating (soybean (Glycine max); Rate 125 g/ha, Postemergence): 9
- Plant response rating, Soybean (soybean (Glycine max); Rate 125 g/ha, Preemergence): 4
- Plant response rating, Soybean (soybean (Glycine max); Rate 250 g/ha, Postemergence): 9
- Plant response rating, Soybean (soybean (Glycine max); [12]): 4
- Plant response rating, Crabgrass ([11]; Rate 62 g/ha, Postemergence): 4
- Crabgrass plant response rating ([11]; Rate 62 g/ha): 9
- Plant response rating, Crabgrass ([11]; Rate 125 g/ha, Postemergence): 7
- Crabgrass plant response rating ([11]; Rate 125 g/ha): 10
- Plant response rating, Crabgrass ([11]; Rate 250 g/ha, Postemergence): 8
- Plant response rating, Crabgrass [11, 12]: 10
- Plant response rating, Corn (corn (Zea mays); Rate 62 g/ha, Postemergence): 3
- Corn plant response rating (corn (Zea mays); Rate 62 g/ha): 0
- Plant response rating, Corn (corn (Zea mays); Rate 125 g/ha, Postemergence): 3
- Corn plant response rating (corn (Zea mays); Rate 125 g/ha): 1
- Plant response rating, Corn (corn (Zea mays); Rate 250 g/ha, Postemergence): 8
- Plant response rating, Corn (corn (Zea mays); [12]): 2

Compound: Cc1cnc(-n2cnc(C(F)(F)F)n2)nc1Cc1cccc(C(F)(F)F)c1 [Compound 43]
- Plant response rating, Velvetleaf ([1]; Rate 62 g/ha, Postemergence): 8
- Velvetleaf plant response rating ([1]; Rate 62 g/ha, Preemergence): 10
- Velvetleaf plant response rating ([1]; Rate 125 g/ha, Postemergence): 9
- Plant response rating, Velvetleaf ([1]; Rate 125 g/ha, Preemergence): 10
- Plant response rating, Velvetleaf ([1]; Rate 250 g/ha, Postemergence): 9
- Plant response rating, Velvetleaf [1, 12]: 10
- Plant response rating, Redroot pigweed ([2]; Rate 62 g/ha, Postemergence): 10
- Redroot pigweed plant response rating ([2]; Rate 62 g/ha, Preemergence): 10
- Redroot pigweed plant response rating ([2]; Rate 125 g/ha, Postemergence): 10
- Redroot pigweed plant response rating ([2]; Rate 125 g/ha, Preemergence): 10
- Plant response rating, Redroot pigweed ([2]; Rate 250 g/ha, Postemergence): 10
- Plant response rating, Redroot pigweed [2, 12]: 10
- Plant response rating, Giant foxtail ([3]; Rate 62 g/ha, Postemergence): 8
- Giant foxtail plant response rating ([3]; Rate 62 g/ha, Preemergence): 7
- Giant foxtail plant response rating ([3]; Rate 125 g/ha, Postemergence): 9
- Giant foxtail plant response rating ([3]; Rate 125 g/ha, Preemergence): 9
- Plant response rating, Giant foxtail ([3]; Rate 250 g/ha, Postemergence): 9
- Plant response rating, Giant foxtail [3, 12]: 9
- Plant response rating, Blackgrass ([4]; Rate 62 g/ha, Postemergence): 5
- Blackgrass plant response rating ([4]; Rate 62 g/ha): 2
- Plant response rating, Blackgrass ([4]; Rate 125 g/ha, Postemergence): 6
- Blackgrass plant response rating ([4]; Rate 125 g/ha): 5
- Plant response rating, Blackgrass ([4]; Rate 250 g/ha, Postemergence): 8
- Plant response rating, Blackgrass [4, 12]: 8
- Plant response rating, Sugarbeets ([5]; Rate 62 g/ha, Postemergence): 10
- Sugarbeets plant response rating ([5]; Rate 62 g/ha, Preemergence): 10
- Sugarbeets plant response rating ([5]; Rate 125 g/ha, Postemergence): 10
- Plant response rating, Sugarbeets ([5]; Rate 125 g/ha, Preemergence): 10
- Plant response rating, Sugarbeets ([5]; Rate 250 g/ha, Postemergence): 10
- Plant response rating, Sugarbeets [5, 12]: 10
- Cocklebur plant response rating ([6]; Rate 62 g/ha): 1
- Plant response rating, Cocklebur ([6]; Rate 125 g/ha, Postemergence): 7
- Cocklebur plant response rating ([6]; Rate 125 g/ha): 2
- Plant response rating, Cocklebur ([6]; Rate 250 g/ha, Postemergence): 9
- Plant response rating, Cocklebur [6, 12]: 2
- Plant response rating, Bedstraw ([7]; Rate 62 g/ha, Postemergence): 9
- Bedstraw plant response rating ([7]; Rate 62 g/ha): 8
- Plant response rating, Bedstraw ([7]; Rate 125 g/ha, Postemergence): 10
- Bedstraw plant response rating ([7]; Rate 125 g/ha): 9
- Plant response rating, Bedstraw ([7]; Rate 250 g/ha, Postemergence): 10
- Plant response rating, Bedstraw [7, 12]: 10
- Plant response rating, B. signalgrass ([8]; Rate 62 g/ha, Postemergence): 4
- B. signalgrass plant response rating ([8]; Rate 62 g/ha): 5
- Plant response rating, B. signalgrass ([8]; Rate 125 g/ha, Postemergence): 4
- B. signalgrass plant response rating ([8]; Rate 125 g/ha): 9
- Plant response rating, B. signalgrass ([8]; Rate 250 g/ha, Postemergence): 6
- Plant response rating, B. signalgrass [8, 13]: 9
- Plant response rating, Rape (rape (Brassica napus); Rate 62 g/ha, Postemergence): 9
- Rape plant response rating (rape (Brassica napus); Rate 62 g/ha, Preemergence): 8
- Rape plant response rating (rape (Brassica napus); Rate 125 g/ha, Postemergence): 10
- Rape plant response rating (rape (Brassica napus); Rate 125 g/ha, Preemergence): 10
- Plant response rating, Rape (rape (Brassica napus); Rate 250 g/ha, Postemergence): 10
- Plant response rating, Rape (rape (Brassica napus); [12]): 10
- Wheat plant response rating ([9]; Rate 62 g/ha, Postemergence): 3
- Wheat plant response rating ([9]; Rate 62 g/ha, Preemergence): 2
- Wheat plant response rating ([9]; Rate 125 g/ha, Postemergence): 4
- Plant response rating, Wheat ([9]; Rate 125 g/ha, Preemergence): 2
- Plant response rating, Wheat ([9]; Rate 250 g/ha, Postemergence): 5
- Plant response rating, Wheat [9, 12]: 2
- Plant response rating, Morningglory ([10]; Rate 62 g/ha, Postemergence): 9
- Morningglory plant response rating ([10]; Rate 62 g/ha, Preemergence): 9
- Morningglory plant response rating ([10]; Rate 125 g/ha, Postemergence): 9
- Morningglory plant response rating ([10]; Rate 125 g/ha, Preemergence): 10
- Plant response rating, Morningglory ([10]; Rate 250 g/ha, Postemergence): 10
- Plant response rating, Morningglory [10, 12]: 10
- Plant response rating, Soybean (soybean (Glycine max); Rate 62 g/ha, Postemergence): 8
- Soybean plant response rating (soybean (Glycine max); Rate 62 g/ha, Preemergence): 1
- Soybean plant response rating (soybean (Glycine max); Rate 125 g/ha, Postemergence): 9
- Plant response rating, Soybean (soybean (Glycine max); Rate 125 g/ha, Preemergence): 5
- Plant response rating, Soybean (soybean (Glycine max); Rate 250 g/ha, Postemergence): 9
- Plant response rating, Soybean (soybean (Glycine max); [12]): 7
- Plant response rating, Crabgrass ([11]; Rate 62 g/ha, Postemergence): 7
- Crabgrass plant response rating ([11]; Rate 62 g/ha): 8
- Plant response rating, Crabgrass ([11]; Rate 125 g/ha, Postemergence): 8
- Crabgrass plant response rating ([11]; Rate 125 g/ha): 10
- Plant response rating, Crabgrass ([11]; Rate 250 g/ha, Postemergence): 10
- Plant response rating, Crabgrass [11, 12]: 10
- Plant response rating, Corn (corn (Zea mays); Rate 62 g/ha, Postemergence): 3
- Corn plant response rating (corn (Zea mays); Rate 62 g/ha): 1
- Plant response rating, Corn (corn (Zea mays); Rate 125 g/ha, Postemergence): 4
- Corn plant response rating (corn (Zea mays); Rate 125 g/ha): 1
- Plant response rating, Corn (corn (Zea mays); Rate 250 g/ha, Postemergence): 5
- Plant response rating, Corn (corn (Zea mays); [12]): 1
